# Experiments:
# Assay in all cases: relative viability (nuclei count vs DMSO), 5 days (fraction); higher = more cells survive
# RAF265 + Pictilisib = compound: Cn1c(Nc2ccc(C(F)(F)F)cc2)nc2cc(Oc3ccnc(-c4ncc(C(F)(F)F)[nH]4)c3)ccc21 [RAF265] + CS(=O)(=O)N1CCN(Cc2cc3nc(-c4cccc5[nH]ncc45)nc(N4CCOCC4)c3s2)CC1 [Pictilisib] (partner 1 µM)
# How it was run: (§1)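 Relative viability was taken as the ratio of nuclei in treated wells to nuclei in vehicle wells. Lung cancer cell lines in 1536-well plates received compounds by pin tool one day after seeding, either one drug alone or a fixed anchor-drug dose plus five library-drug doses (not always all listed) in √10 steps. Nuclei were counted on 4× images after 5 days of treatment, and values are medians of duplicate plates.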
# RAF265 + Phenformin = compound: Cn1c(Nc2ccc(C(F)(F)F)cc2)nc2cc(Oc3ccnc(-c4ncc(C(F)(F)F)[nH]4)c3)ccc21 [RAF265] + N=C(N)NC(=N)NCCc1ccccc1 [Phenformin] (partner 250 µM)
# How it was run: as §1
# Doramapimod + Decitabine = compound: Cc1ccc(-n2nc(C(C)(C)C)cc2NC(=O)Nc2ccc(OCCN3CCOCC3)c3ccccc23)cc1 [Doramapimod] + Nc1ncn([C@H]2C[C@H](O)[C@@H](CO)O2)c(=O)n1 [Decitabine] (partner 2 µM)
# How it was run: as §1
# IPA-3 + Alpelisib = compound: C1=CC=C2C(=C1)C=CC(=C2SSC3=C(C=CC4=CC=CC=C43)O)O [IPA-3] + Cc1nc(NC(=O)N2CCC[C@H]2C(N)=O)sc1-c1ccnc(C(C)(C)C(F)(F)F)c1 [Alpelisib] (partner 2 µM)
# How it was run: as §1
Cell Line,relative viability (RAF265 + Pictilisib; first compound 0.01 µM),relative viability (RAF265 + Pictilisib; first compound 0.03162 µM),relative viability (RAF265 + Pictilisib; first compound 0.1 µM),relative viability (RAF265 + Pictilisib; first compound 0.3162 µM),relative viability (RAF265 + Pictilisib; first compound 1 µM),relative viability (RAF265 + Phenformin; first compound 0.01 µM),relative viability (RAF265 + Phenformin; first compound 0.03162 µM),relative viability (RAF265 + Phenformin; first compound 0.1 µM),relative viability (RAF265 + Phenformin; first compound 0.3162 µM),relative viability (RAF265 + Phenformin; first compound 1 µM),relative viability (Doramapimod + Decitabine; first compound 0.02 µM),relative viability (Doramapimod + Decitabine; first compound 0.06325 µM),relative viability (Doramapimod + Decitabine; first compound 0.2 µM),relative viability (Doramapimod + Decitabine; first compound 0.6325 µM),relative viability (Doramapimod + Decitabine; first compound 2 µM),relative viability (IPA-3 + Alpelisib; first compound 0.2 µM),relative viability (IPA-3 + Alpelisib; first compound 0.6325 µM),relative viability (IPA-3 + Alpelisib; first compound 2 µM),relative viability (IPA-3 + Alpelisib; first compound 6.325 µM),relative viability (IPA-3 + Alpelisib; first compound 20 µM)
HCC-15,0.805,0.625,0.645,0.49,0.333,0.486,0.483,0.464,0.355,0.316,0.64,0.621,0.63,0.645,0.681,1.01,0.831,0.73,0.876,0.928
H3255,0.494,0.512,0.522,0.132,0.336,0.358,0.378,0.372,,0.349,0.688,0.581,0.767,,0.569,0.798,0.774,0.48,0.657,0.863
NCI-H1792,0.277,0.279,0.223,0.166,0.0856,0.394,0.182,0.186,0.0818,0.0945,0.462,0.532,0.505,0.571,0.47,0.729,0.668,0.703,0.646,0.794
NCI-H596,0.417,0.338,0.372,0.381,0.274,0.869,0.833,0.691,0.689,0.489,1,0.97,1.02,0.995,1,0.527,0.562,0.475,0.523,0.558
NCI-H2087,0.96,0.907,0.884,0.46,0.372,0.512,0.413,0.377,0.331,0.287,0.286,0.206,0.277,0.232,0.201,1.19,0.974,1.21,1.07,0.973
NCI-H661,0.438,0.498,0.383,0.288,0.283,0.258,0.27,0.275,0.281,0.261,0.563,0.564,0.63,0.631,0.492,0.693,0.682,0.801,0.765,1.07
EMC-BAC-2,0.494,0.513,0.496,0.386,0.228,0.544,0.457,0.339,0.336,0.125,1,0.905,0.99,0.955,0.858,0.813,0.744,0.785,0.694,0.822
NCI-H1355,0.498,0.409,0.322,0.214,0.204,0.432,0.434,0.41,0.309,0.332,0.372,0.357,0.347,0.407,0.359,0.918,0.782,0.809,0.797,0.802
NCI-H23,0.545,0.429,0.393,0.245,0.206,0.754,0.749,0.669,0.544,0.59,0.359,0.288,0.358,0.329,0.265,0.694,0.577,0.73,0.645,0.805
NCI-H1651,0.523,0.539,0.433,0.397,0.463,0.369,0.334,0.316,0.294,0.295,0.632,0.678,0.608,0.569,0.608,1.01,,0.912,0.904,1.15
NCI-H1975,0.287,0.213,0.162,0.155,0.103,0.386,0.343,0.284,0.251,0.205,0.384,0.451,0.335,0.386,0.301,0.644,0.65,0.628,0.753,0.708
COR-L23,0.874,0.663,0.626,0.368,0.323,0.507,0.395,0.344,0.315,0.258,0.409,0.412,0.507,0.432,0.41,0.872,0.769,0.861,0.589,0.587
HCC-44,0.631,0.697,0.55,0.507,0.561,0.183,0.241,0.209,0.199,0.19,0.958,0.984,1.03,0.945,0.978,0.788,0.715,0.843,0.683,0.775
LOU-NH91,0.529,0.487,0.495,0.481,0.474,0.86,0.639,0.721,0.64,0.52,0.858,0.806,0.84,0.849,0.711,0.717,0.702,0.723,0.674,0.914
NCI-H441,0.572,0.466,0.304,0.261,0.206,0.914,0.833,0.725,0.628,0.633,0.238,0.216,0.268,0.238,0.194,0.942,,0.628,0.668,0.782
NCI-H647,0.38,0.342,0.383,0.259,0.208,0.432,0.515,0.38,0.282,0.212,0.44,0.331,0.39,0.418,0.365,1.49,1.06,1.18,0.537,0.11

Cell Line,relative viability (RAF265 + Pictilisib; first compound 0.01 µM),relative viability (RAF265 + Pictilisib; first compound 0.03162 µM),relative viability (RAF265 + Pictilisib; first compound 0.1 µM),relative viability (RAF265 + Pictilisib; first compound 0.3162 µM),relative viability (RAF265 + Pictilisib; first compound 1 µM),relative viability (RAF265 + Phenformin; first compound 0.01 µM),relative viability (RAF265 + Phenformin; first compound 0.03162 µM),relative viability (RAF265 + Phenformin; first compound 0.1 µM),relative viability (RAF265 + Phenformin; first compound 0.3162 µM),relative viability (RAF265 + Phenformin; first compound 1 µM),relative viability (Doramapimod + Decitabine; first compound 0.02 µM),relative viability (Doramapimod + Decitabine; first compound 0.06325 µM),relative viability (Doramapimod + Decitabine; first compound 0.2 µM),relative viability (Doramapimod + Decitabine; first compound 0.6325 µM),relative viability (Doramapimod + Decitabine; first compound 2 µM),relative viability (IPA-3 + Alpelisib; first compound 0.2 µM),relative viability (IPA-3 + Alpelisib; first compound 0.6325 µM),relative viability (IPA-3 + Alpelisib; first compound 2 µM),relative viability (IPA-3 + Alpelisib; first compound 6.325 µM),relative viability (IPA-3 + Alpelisib; first compound 20 µM)
NCI-H1915,0.965,0.914,0.705,0.37,0.247,0.364,0.341,0.265,0.203,0.183,0.24,0.256,0.256,0.261,0.255,1.17,1.05,1.09,1.03,1.07
NCI-H1734,0.479,0.334,0.438,0.276,0.228,0.458,0.376,0.32,0.317,0.257,0.476,0.47,0.489,0.51,0.363,0.733,0.594,0.692,0.677,0.822
NCI-H1993,0.888,0.805,0.934,0.824,0.763,0.455,0.586,0.502,0.603,0.479,0.537,0.578,0.511,0.668,0.53,0.742,0.6,0.616,0.66,0.594
LK-2,0.528,0.669,0.604,0.531,0.403,0.445,0.417,0.385,0.63,0.402,0.294,0.288,0.25,0.232,0.266,1.13,1.02,1.19,1.19,1.22
HCC-78,0.224,0.216,0.291,0.171,0.145,0.87,0.847,0.832,0.647,0.652,0.753,0.794,0.635,0.609,0.624,0.327,0.406,0.244,0.347,0.51
NCI-H2405,0.529,0.473,0.397,0.368,0.231,0.424,0.372,0.384,0.344,0.261,0.758,0.713,0.703,0.861,0.685,0.815,0.771,0.753,0.853,0.829
HOP-62,0.641,,0.726,0.426,0.179,0.676,0.505,0.638,0.557,0.576,0.267,0.268,0.176,0.208,0.211,1.08,0.926,0.952,0.945,0.93
NCI-H650,0.805,0.94,0.766,0.698,0.466,0.469,0.438,0.383,0.348,0.289,0.326,0.339,0.35,0.323,0.325,1.43,1.11,1.18,1.04,1.55
NCI-H358,0.398,0.298,0.28,0.261,0.249,0.419,0.308,0.252,0.144,0.149,0.209,0.203,0.197,0.232,0.205,1.01,0.843,0.791,0.803,1.19
BEN,0.627,0.696,0.69,0.625,0.55,0.276,0.267,0.274,0.263,0.239,0.69,0.769,0.799,0.512,0.675,1.28,0.992,1.09,0.954,1.26
SW 1573,0.597,0.445,0.542,0.399,0.221,0.373,0.336,0.353,0.296,0.265,0.506,0.388,0.615,0.575,0.366,0.891,0.777,0.8,0.726,0.988
SK-MES-1,0.311,0.301,0.218,0.214,0.141,0.62,0.404,0.341,0.263,0.2,0.329,0.355,0.356,0.424,0.315,1.17,0.88,0.868,,0.951
NCI-H1755,0.47,0.287,0.264,0.238,0.148,0.612,0.59,0.571,0.459,0.432,0.778,0.753,0.711,0.666,0.706,1.11,0.918,0.908,0.939,1.03
NCI-H2023,0.243,0.212,0.272,0.152,0.214,0.421,0.407,0.391,0.353,0.322,0.233,0.211,0.263,0.218,0.216,0.737,0.636,0.575,0.628,0.768
LC-2-ad,0.441,0.361,0.223,0.171,0.0927,0.628,0.581,0.586,0.394,0.455,0.828,0.776,0.793,0.854,0.768,0.927,0.808,0.897,0.82,0.941
NCI-H1666,0.583,0.453,0.329,0.426,0.249,0.597,0.343,0.567,0.579,0.559,0.768,0.792,0.83,0.659,0.755,1.09,0.978,1,1.12,0.844
